We go through 6 compounds from PMC10777911, “A Potent PDK4 Inhibitor for Treatment of Heart Failure with Reduced Ejection Fraction” (Cells, 2023).

≈ marks a conversion by molar mass, not a printed value. Where only a bound is given, the exact number is not on record here.

As usually defined, the melting point is the temperature, or range, at which the solid turns liquid.

Data set [1] has as its target T1, Full-length human PDK4 (GST-fusion) (Homo sapiens, UniProt Q16654).
T1 construct: GST (Glutathione S-transferase) (N); made in house; host or cells: E. coli
Kind of data set: Off-chip mobility shift assay (MSA) for PDK4 inhibition. The note with it: at 10 µg/mL of each inhibitor; for inhibition at 10 µg/mL: read-out: PDK4 Inhibitory Activity (%). In kind it is biochemical. On the procedure:
Full-length human PDK4 [amino acids 1-411 of accession number NP_002603.1] was expressed as an N-terminal Glutathione S-transferase (GST)-fusion protein (73 kDa) using an E. coli expression system. GST-PDK4 was purified using glutathione affinity chromatography.
Derivatives were dissolved in dimethyl sulfoxide (DMSO) and further diluted in DMSO to prepare a solution with a 100-fold higher concentration than the test sample solution. This solution was further diluted 25-fold in assay buffer (20 mM 4-(2-hydroxyethyl)-1-piperazineethanesulfonic acid (HEPES), 0.01% Triton X-100, 2 mM dithiothreitol (DTT), pH 7.5) to make a test sample solution. The positive control substance solution was prepared the same way.
(1) 5µL of test sample solution, 5 µL of substrate/ATP/metal solution in assay buffer (20 mM HEPES, 0.01% Triton X-100, 2 mM DTT, pH 7.5), and 10 µL of kinase solution in assay buffer prepared in assay buffer were mixed in the wells of a 384-well polypropylene plate and allowed to react for 5 h at room temperature. (2) The reaction was stopped by adding 70 µL of Termination Buffer (QuickScout Screening Assist MSA; Carna Biosciences). (3) Substrate peptides and phosphorylated peptides in the reaction solution were separated and quantified using the LabChip system (Perkin Elmer, Shelton, CT, USA). (4) The product ratio (P/(P+S)) was calculated from the substrate peptide peak height (S) and the phosphorylated peptide peak height (P) of the kinase reaction.
The average signal in control wells containing all reaction components was considered to be 0% inhibition. The average signal in background wells (without enzyme) was considered as 100% inhibition, and the % inhibition was calculated from the average signal in each test sample well.

Data set [2] has as its system human fibroblast cells. Kind of data set: Cytotoxicity assay against human fibroblast cells (growth inhibition). In kind it is cell-based. The following applies: human fibroblasts, read-out: Toxicity (IC50), half-maximal inhibitory concentration to inhibit fibroblast growth. On the procedure: Wild-type fibroblasts obtained from a volunteer expressing [F352F + V368V] (FV–FV alleles), purchased from RIKEN Cell Bank (Tsukuba, Japan), were used, and the cytotoxicity assay was carried out as described in the previous paper.
(§1) With five synthesized Vitamin K3 derivatives, their in vitro PDK4 inhibitory activity and cytotoxicity were evaluated. In vitro activities were tested using fluorescently labeled PDH by measuring phosphorylated and unphosphorylated PDH of the derivatives using a CCD camera. For cytotoxicity, IC50 values were calculated by adding the derivatives to the human fibroblast culture medium and monitoring growth inhibition. Then, we evaluated the efficacy of novel PDK4 inhibitor candidates in the treatment of heart failure. The transverse aorta of wild-type mice was constricted to induce a pressure overload in the left ventricle, and the ejection fraction (EF) was postoperatively measured at 4 weeks. Subsequently, 2.8 mg/kg of each derivative was intraperitoneally administered to mice once daily for 1 week to evaluate improvement in EF values.

Data set [3] concerns TAC mice (heart failure with reduced EF). Description: Transverse aortic constriction (TAC) heart failure model, echocardiography. In kind it is in vivo, mouse (C57BL/6J). The note with it: 2.8 mg/kg i.p. once daily for 1 week, compared to DCA. Here is the method:
C57BL/6J mice were purchased from Japan SLC, Inc. (Hamamatsu, Japan) and Takasugi Experimental Animals Supply Co., Ltd. (Kasukabe, Japan), and were kept under a 12 h light–dark schedule. All animal handling procedures in this study complied with the Jichi Medical University Guide for Laboratory Animals and the ARRIVE guidelines. The Institutional Animal Care and Concern Committee at Jichi Medical University approved all experimental protocols. This study used 8-week-old male mice.
Mice were intubated prior to surgery and were maintained under assisted ventilation on a heating pad throughout the procedure. Under a microscope, a midline incision was made on the skin from the neckline to the mid-chest level. A partial thoracotomy was made through the second rib, and the sternum was retracted to aid visualization of the aorta. After periaortic tissue was removed, a 27-G blunt needle was placed in parallel along the transverse aorta, and the suture was tied over the needle between the innominate artery and the left common carotid. Then, the rib cage was closed, followed by closure of the skin. […] Mice were kept in a heating unit until they recovered completely from anesthesia.
At weeks 0, 4, and 5 after TAC induction, mice were anesthetized with 1.5% isoflurane and secured on an animal handling and physiological monitoring system in the supine position. Images were captured with a 30 MHz probe attached to a Vevo 2100 (VisualSonics, Toronto, ON, Canada). Heart rate was maintained at 400 to 500 bpm, and the temperature of the system was kept at 37 °C while echocardiographic images were captured. The ejection fraction was calculated using the Vevo2100 system based on the Teichholz method.
Four weeks after the TAC surgery, mice with an EF less than 55 were subjected to injection. Then, 2.8 mg/kg of compound 8 or DCA in 5% DMSO in saline or 5% DMSO in saline was injected peritoneally every day for 7 days.
as §1

In data set [4] the test system is PDK4. Further details: method as in PMID 24865588. The following applies: previous study; read-out: IC50 of PDK4 inhibition; cited from earlier work.

T1 sequence (Q16654 whole entry, the tested form may be a part): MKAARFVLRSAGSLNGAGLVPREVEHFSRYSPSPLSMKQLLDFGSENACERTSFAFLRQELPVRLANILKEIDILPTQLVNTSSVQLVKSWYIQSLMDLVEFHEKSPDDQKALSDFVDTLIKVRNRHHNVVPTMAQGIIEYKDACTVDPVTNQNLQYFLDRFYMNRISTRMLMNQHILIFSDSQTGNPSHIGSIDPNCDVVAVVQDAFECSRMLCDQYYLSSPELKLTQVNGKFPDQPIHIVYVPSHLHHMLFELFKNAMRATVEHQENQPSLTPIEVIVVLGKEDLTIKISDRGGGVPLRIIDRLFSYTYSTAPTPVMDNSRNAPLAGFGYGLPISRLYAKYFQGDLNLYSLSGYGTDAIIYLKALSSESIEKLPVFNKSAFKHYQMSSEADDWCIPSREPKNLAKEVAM

Take `COC(=O)c1ccc2c(c1)C(=O)C(C)=CC2=O` [Compound 5]: in data set [1], the inhibition at 10 µg/mL came out at 34.6%. Moreover, the IC50 in data set [2] came to 8 µg/mL (≈ 34.7 µM). Besides, the “Change in EF (EF5/EF4) after a week of daily injection” value in data set [3] is on record as “improve”.
On the same counts, the results for `COC(=O)c1ccc2c(c1)C(=O)C=C(C)C2=O` [Compound 11] are 65.4%, 7 µg/mL (≈ 30.4 µM) and “improve”.
Turning to `CC1=CC(=O)c2cc(C(=O)NCC(=O)O)ccc2C1=O` [Compound 13a], the melting point was 163 to 163.2 °C. The inhibition at 10 µg/mL in data set [1] worked out at 66.8%. For the same compound, the IC50 in data set [2] is more than 110 µg/mL. For the same compound, the “Change in EF (EF5/EF4) after a week of daily injection” value in data set [3] was “improve”.
On the same counts, the results for `CC1=CC(=O)c2cc(C(=O)N[C@@H](CO)C(=O)O)ccc2C1=O` [Compound 13b] are 166.6 to 166.8 °C, 63.2%, more than 99 µg/mL and “improve”.
As for `O=C(O)C(Cl)Cl` [DCA, dichloroacetic acid], the IC50 in data set [4] is 57.8 µM.
Regarding `CC1=CC(=O)c2ccccc2C1=O` [Vitamin K3, reference compound], in data set [1], the “PDK4 Inhibitory Activity (%)” value stood at 65.9% and the inhibition at 10 µg/mL is 66%. Also, the IC50 in data set [2] was found to be 18 µg/mL (≈ 105 µM).
